The values that follow come from patent US11192890B2, “FGFR kinase inhibitors and pharmaceutical uses” (AUCKLAND UNISERVICES LIMITED, priority 2017, dated 2021).

The IC50 is the midpoint of a concentration-inhibition curve.

For one experiment, the target named is T1, FGFR3 (Homo sapiens, UniProt P22607).
T1 construct: purchased Invitrogen
Kind of experiment: Isolated enzyme FRET-based Z-Lyte kinase inhibition assay. The format is biochemical. The conditions noted are these: means from 3 independent experiments; read-out: Isolate Enzyme Inhibition IC50, FGFR3. As to the method: (§1) FGFR1-4 and the Z-Lyte Kinase Assay Kit were purchased from Invitrogen. The concentration gradients from 5.1×10^−11 to 1.0×10^−6 mol/L were used for all the test compounds. The experiments were performed according to the instructions of the manufacturer.
(§2) FGFR1-4 isolated enzyme activity was determined using the FRET-based Z-Lyte kinase inhibition assay. The data are the means from 3 independent experiments.

The target of the next experiment is T2, FGFR2 (Homo sapiens, UniProt P21802).
T2 construct: purchased Invitrogen
The description is as above. The class given is biochemical. The conditions noted are these: means from 3 independent experiments; read-out: Isolate Enzyme Inhibition IC50, FGFR2. As for the experimental part: as §1, §2

For a further experiment, the target named is T3, FGFR1 (Homo sapiens, UniProt P11362).
T3 construct: purchased Invitrogen
The description is as above. The class given is biochemical. The conditions noted are these: means from 3 independent experiments; read-out: Isolate Enzyme Inhibition IC50, FGFR1. As to the method: as §1, §2

The subject of experiment [1] is FGFR1 in H520 cells (phospho-ERK1/2). Kind of experiment: Drug washout Western blot assay, H520 cells. The class given is cell-based. As to conditions: H520; 30 min exposure, 100 nM, with and without washout. (In western blotting, separated proteins are transferred to a membrane and probed.)
For experiment [2], the system named is FGFR3 in SW780 cells (phospho-ERK1/2). Kind of experiment: Drug washout Western blot assay, SW780 cells. The class given is cell-based. As to conditions: SW780; 30 min exposure, 100 nM, with and without washout.

T1 sequence (P22607 23-806): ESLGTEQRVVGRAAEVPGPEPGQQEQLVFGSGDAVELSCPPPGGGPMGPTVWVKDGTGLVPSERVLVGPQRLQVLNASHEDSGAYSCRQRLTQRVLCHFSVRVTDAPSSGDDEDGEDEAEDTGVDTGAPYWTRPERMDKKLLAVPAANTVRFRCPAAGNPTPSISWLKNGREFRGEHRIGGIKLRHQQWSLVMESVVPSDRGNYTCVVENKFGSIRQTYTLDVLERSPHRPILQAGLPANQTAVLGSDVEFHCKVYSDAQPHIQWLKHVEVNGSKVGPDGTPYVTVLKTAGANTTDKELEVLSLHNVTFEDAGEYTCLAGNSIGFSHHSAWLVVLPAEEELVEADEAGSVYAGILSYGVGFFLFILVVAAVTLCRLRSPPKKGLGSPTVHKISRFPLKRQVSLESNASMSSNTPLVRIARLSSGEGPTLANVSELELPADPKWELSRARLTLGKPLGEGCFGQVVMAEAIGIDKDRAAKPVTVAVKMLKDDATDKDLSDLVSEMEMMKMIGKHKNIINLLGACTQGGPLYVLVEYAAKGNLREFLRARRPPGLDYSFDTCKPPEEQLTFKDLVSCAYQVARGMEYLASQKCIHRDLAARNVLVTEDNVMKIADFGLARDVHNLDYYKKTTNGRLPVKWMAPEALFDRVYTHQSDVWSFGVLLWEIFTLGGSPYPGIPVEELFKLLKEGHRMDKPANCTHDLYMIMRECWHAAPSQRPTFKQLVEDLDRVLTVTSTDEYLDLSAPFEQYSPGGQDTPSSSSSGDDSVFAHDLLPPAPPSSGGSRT
T3 sequence (P11362 22-822): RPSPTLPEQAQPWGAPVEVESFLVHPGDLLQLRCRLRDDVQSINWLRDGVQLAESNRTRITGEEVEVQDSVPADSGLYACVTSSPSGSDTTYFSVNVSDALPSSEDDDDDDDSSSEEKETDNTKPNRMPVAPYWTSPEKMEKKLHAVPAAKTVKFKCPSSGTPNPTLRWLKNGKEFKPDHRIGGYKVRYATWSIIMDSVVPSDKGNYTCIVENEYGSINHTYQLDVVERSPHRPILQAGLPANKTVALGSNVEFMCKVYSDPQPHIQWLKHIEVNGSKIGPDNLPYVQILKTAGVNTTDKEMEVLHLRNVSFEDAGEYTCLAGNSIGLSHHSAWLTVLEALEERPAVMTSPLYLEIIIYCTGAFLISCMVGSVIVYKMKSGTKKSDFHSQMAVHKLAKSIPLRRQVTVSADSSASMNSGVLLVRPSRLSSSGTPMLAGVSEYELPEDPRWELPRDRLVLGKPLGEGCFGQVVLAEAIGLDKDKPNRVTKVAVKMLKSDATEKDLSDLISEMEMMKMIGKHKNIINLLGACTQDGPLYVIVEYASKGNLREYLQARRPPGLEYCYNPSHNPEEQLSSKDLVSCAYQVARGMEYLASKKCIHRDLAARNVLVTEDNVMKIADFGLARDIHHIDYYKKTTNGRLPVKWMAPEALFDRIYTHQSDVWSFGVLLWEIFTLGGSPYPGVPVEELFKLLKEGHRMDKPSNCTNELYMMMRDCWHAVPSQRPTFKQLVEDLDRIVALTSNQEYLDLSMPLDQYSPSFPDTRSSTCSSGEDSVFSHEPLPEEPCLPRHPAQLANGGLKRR
T2 sequence (P21802 22-821): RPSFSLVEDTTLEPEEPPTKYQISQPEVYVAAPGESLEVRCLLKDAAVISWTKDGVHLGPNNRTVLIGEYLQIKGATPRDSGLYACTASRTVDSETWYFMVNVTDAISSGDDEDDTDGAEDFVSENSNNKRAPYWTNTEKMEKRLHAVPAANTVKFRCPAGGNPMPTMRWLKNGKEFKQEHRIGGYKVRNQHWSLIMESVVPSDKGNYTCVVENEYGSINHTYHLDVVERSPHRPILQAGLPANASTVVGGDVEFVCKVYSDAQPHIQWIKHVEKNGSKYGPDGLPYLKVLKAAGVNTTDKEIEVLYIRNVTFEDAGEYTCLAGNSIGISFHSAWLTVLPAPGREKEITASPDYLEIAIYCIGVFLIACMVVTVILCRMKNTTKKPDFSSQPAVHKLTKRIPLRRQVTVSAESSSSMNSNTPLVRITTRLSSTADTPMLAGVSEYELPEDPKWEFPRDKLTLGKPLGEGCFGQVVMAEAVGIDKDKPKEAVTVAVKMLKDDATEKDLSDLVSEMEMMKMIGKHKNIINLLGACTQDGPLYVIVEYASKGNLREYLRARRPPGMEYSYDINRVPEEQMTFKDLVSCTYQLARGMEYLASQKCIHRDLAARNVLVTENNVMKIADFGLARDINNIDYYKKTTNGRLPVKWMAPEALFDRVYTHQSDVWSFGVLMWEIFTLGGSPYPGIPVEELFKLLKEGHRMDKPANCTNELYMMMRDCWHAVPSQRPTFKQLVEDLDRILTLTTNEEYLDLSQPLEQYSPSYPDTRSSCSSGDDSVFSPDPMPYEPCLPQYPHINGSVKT

Take `COc1cc(OC)c(Br)c(N2Cc3cnc(NC(C)C)nc3N(C3CCN(C(=O)/C=C/CN(C)C)CC3)C2=O)c1Br` [Compound 151, (E)-3-(2,6-dibromo-3,5-dimethoxyphenyl)-1-(1-(4-(dimethylamino)but-2-enoyl)piperidin-4-yl)-7-(isopropylamino)-3,4-dihydropyrimido[4,5-d]pyrimidin-2(1H)-one]: the results for the IC50 at FGFR3, on FGFR2 and on FGFR1 were 35 nM, 3.5 nM and 4.2 nM, respectively. In experiment [1], the “reversible or irreversible inhibition of FGFR1 in cells” value was “reversible binding characteristics”.
In the case of `COc1cc(OC)c(Cl)c(-c2cc3cnc(Nc4ccccc4)nc3n(C3CCN(C(=O)/C=C/CN(C)C)CC3)c2=O)c1Cl` [Compound 138, (E)-6-(2,6-dichloro-3,5-dimethoxyphenyl)-8-(1-(4-(dimethylamino)but-2-enoyl)piperidin-4-yl)-2-(phenylamino)pyrido[2,3-d]pyrimidin-7(8H)-one], the IC50 stood at 5.1 nM on FGFR3, 1.1 nM on FGFR2 and 1.1 nM on FGFR1. Further, the “reversible or irreversible inhibition of FGFR1 in cells” value in experiment [1] is on record as “potent irreversible inhibitors”.
In the case of `CNc1ncc2c(n1)N(C1CCC(NC(=O)/C=C/CN(C)C)CC1)C(=O)N(c1c(Cl)c(OC)cc(OC)c1Cl)C2` (stereo not shown) [Compound 126, (E)-N-(4-(3-(2,6-dichloro-3,5-dimethoxyphenyl)-7-(methylamino)-2-oxo-3,4-dihydropyrimido[4,5-d]pyrimidin-1(2H)-yl)cyclohexyl)-4-(dimethylamino)but-2-enamide], the IC50 was 6.8 nM at FGFR3, 1.5 nM at FGFR2 and 0.5 nM on FGFR1. Moreover, the “reversible or irreversible inhibition of FGFR3 in cells” value in experiment [2] is reported as “potent reversible inhibitors”.
The corresponding values for `CNc1ncc2c(n1)N(C1CCN(C(=O)/C=C/CN3CCOCC3)CC1)C(=O)N(c1c(Cl)c(OC)cc(OC)c1Cl)C2` [Compound 123, (E)-3-(2,6-dichloro-3,5-dimethoxyphenyl)-7-(methylamino)-1-(1-(4-morpholinobut-2-enoyl)piperidin-4-yl)-3,4-dihydropyrimido[4,5-d]pyrimidin-2(1H)-one] are 8.3 nM, 2.7 nM, 0.7 nM and “potent reversible inhibitors”.
For `COc1cc(OC)c(Br)c(-c2cc3cnc(Nc4ccccc4)nc3n(C3CCN(C(=O)/C=C/CN(C)C)CC3)c2=O)c1Br` [Compound 152, (E)-6-(2,6-dibromo-3,5-dimethoxyphenyl)-8-(1-(4-(dimethylamino)but-2-enoyl)piperidin-4-yl)-2-(phenylamino)pyrido[2,3-d]pyrimidin-7(8H)-one], the IC50 at FGFR3 was 2 nM; at FGFR2 it was 1.1 nM; on FGFR1, 0.7 nM. Moreover, in experiment [1], the “reversible or irreversible inhibition of FGFR1 in cells” value is “potent irreversible inhibitors”.
Turning to `COc1cc(OC)c(Br)c(-c2cc3cnc(NC(C)C)nc3n(C3CCN(C(=O)/C=C/CN(C)C)CC3)c2=O)c1Br` [Compound 153, (E)-6-(2,6-dibromo-3,5-dimethoxyphenyl)-8-(1-(4-(dimethylamino)but-2-enoyl)piperidin-4-yl)-2-(isopropylamino)pyrido[2,3-d]pyrimidin-7(8H)-one], the IC50 on FGFR3 turned out to be 7.6 nM; on FGFR2 it was 1 nM; on FGFR1 it was 0.8 nM. Also, the “reversible or irreversible inhibition of FGFR1 in cells” value in experiment [1] is recorded as “potent irreversible inhibitors”.
With `COc1cc(OC)c(Cl)c(-c2cc3cnc(NCC4CCOCC4)nc3n(C3CCN(C(=O)/C=C/CN(C)C)CC3)c2=O)c1Cl` [Compound 137, (E)-6-(2,6-dichloro-3,5-dimethoxyphenyl)-8-(1-(4-(dimethylamino)but-2-enoyl)piperidin-4-yl)-2-(((tetrahydro-2H-pyran-4-l)methyl)amino)pyrido[2,3-d]pyrimidin-7(8H)-one], the IC50 was 6.2 nM on FGFR3, 1.8 nM at FGFR2 and 0.7 nM on FGFR1. Besides, in experiment [2], the “reversible or irreversible inhibition of FGFR3 in cells” value is on record as “potent reversible inhibitors”.
